Experimental data from patent US20210386744A1, “SILDENAFIL FOR USE IN THE TREATMENT OF OSTEOARTHRITIS” (MAZELOTTEN 353 AB under namnandring till ARTROA AB, priority 2018, published 2021).
Entries after “also recorded” stand apart in the source; their conditions may differ.

Key:
[1] = test system: Horse chondrocytes from OA horses; test: ATP-evoked intracellular Ca2+ signalling in horse chondrocytes (fluorescence-based assay, Flexstation 3); format: cell-based; conditions: for intracellular Ca2+ release (AUC and peak): ATP 10^-4 M, OA horse chondrocytes
Protocol: Horse chondrocytes from OA horses were stimulated, in a fluorescence-based assay for detecting changes in intracellular Ca^2+ over time, with ATP (10^−4 M). The cells were cultivated in 5.5 mM glucose the whole cultivation period. Ca^2+ responses were measured after the cells were incubated for 24 h with metformin (1 mM), and bupivacaine (10^−12 M). Controls are untreated chondrocytes. The area under the Ca^2+ peak (AUC)(FIG. 1 A) was calculated for each Ca^2+ transient as well as the amplitude (peak) (FIG. 1 B) was expressed as the maximum increase. The cells were obtained from 4 experiments with quadruple wells in each. The level of significance was analyzed using a one-way ANOVA followed by Dunnett'multiple comparisons test. **P<0.01, **P<0.001. Similar data was obtained for human chondrocytes.
Articular cartilage samples were obtained, within 24 h of euthanasia, from the middle carpal joints of six horses (1-8-year-old). […] The horses were euthanized because of reasons unrelated to this study, and the Ethical Committee on Animal Experiments, Stockholm, Sweden, approved the study protocol (Dnr: N378/12).
Following aseptic preparation, cartilage of the dorsal aspect of the radial facet of the third carpal bone was incised with a scalpel, and full-thickness cartilage samples were collected with forceps. The tissue was placed in a sterile saline (0.9% NaCl) solution with gentamicin sulfate (50 mg/l) and amphotericin B (250 μg/ml). Cartilage samples were transported chilled (approx. 5° C.) to the laboratory. Isolation and expansion of chondrocytes were performed as previously described (Ley C, Svala E, Nilton A, Lindahl A, Eloranta M, Ekman S, Skiöldebrand E.Connect Tissue Res. (2011); 52 (4): 290-300). Cells were expanded in passage 1 and cells were seeded at 20,000 cells/cm2 in chondrogenic media to maintain the phenotype, DMEM-high glucose (DMEM-HG) (Thermo Fisher Scientific; Waltham, Mass., USA) supplemented with 14 μg/ml ascorbic acid (Sigma-Aldrich, St. Louis, Mo., USA), 10^−7 M dexamethasone (Sigma-Aldrich), 1 mg/ml human serum albumin (Equitech Bio, Kerville, Tex., USA), 1× insulin-transferrin-selenium (Gibco, Life Technologies, Carlsbad, Calif., USA), 5 μg/ml linoleic acid (Sigma-Aldrich), 1× penicillin-streptomycin (PEST) (Sigma-Aldrich), and 10 ng/ml human transforming growth factor (TGF) β-1 (R&D Systems, Abingdon, UK) for 5 days until confluence, in 96-well culture plates for Ca^2+ or in 6-well culture plates for Western blot analysis.
For restoration the cells were incubated with metformin and bupivacaine at day 4 of cultivation for 24 h. At day 5 the Ca^2+ measurements were performed, medium collected for Western blot analysis and cells were harvested and immediately frozen at −80° C. before analysis. […]

[2] = test system: human chondrocytes; test: Quantitative real-time PCR of growth factors GDF-5 and FGF-18 in chondrocytes; format: cell-based; conditions: for FGF18 expression / GDF5 expression: human chondrocytes, treatment of bupivacaine and sildenafil, FIGS. 1C-D
Protocol: Cells (human chondrocytes) aimed for RNA isolation were washed with sterile PBS twice before addition of 1M DL-Dithiothreitol solution (Sigma Aldrich) in lysis buffer (Qiagen). The cells were visually inspected to ensure lysis before transfer to RNAse free, endtoxin-free sample tubes, snap frozen in liquid nitrogen, and stored at −80° C. for RNA isolation. Total RNA was extracted and purified with a commercially available kit (RNeasy mini kit, Qiagen) in accordance with the manufacturer's protocol. In brief, cells in lysis buffer were thawed and vortexed for 1 minute before 70% ethanol was added (1:1). The samples were mixed before addition to a spin column, and centrifuged. The column was then washed before genomic DNA was removed with DNase (Qiagen). The washing step was repeated with a stringent wash buffer and thereafter a mild buffer for washing membrane bound RNA. Total RNA was eluted with 50 μl RNase free water. RNA concentration was measured ho with a micro-volume spectrophotometer (ND-1000 spectrophotometer, NanoDrop Technologies, Wilmington, Del.) and RNA quality was evaluated using the Agilent 2100 Bioanalyzer system (Agilent Technologies Inc, Palo Alto, Calif.). cDNA was prepared from total RNA using High Capacity cDNA Reverse Transcription Kit (Applied Biosystems, Foster City, Calif., USA). Commercially available TaqMan Gene Expression Assays all from Applied Biosystems were used (Fibroblast growth factor 18 (FGF-18) and Growth and differentiation factor-5 (GDF-5)). Samples were analyzed in duplicates. The relative comparative CT method was used to analyze the real-time polymerase chain reaction (PCR) data.

[3] = test system: horse with OA; test: Clinical lameness examination with flexion test in horses with osteoarthritis; format: in vivo
Description: Lameness examination with flexion test and treatments have been performed by a veterinarian, and the results are shown in FIG. 2A. Lameness examination with flexion test and treatments have been performed by a veterinarian, and the results are shown in FIG. 3A.

[4] = test system: COMP neo-epitope; test: COMP neo-epitope concentration in synovial fluid and serum of horses with osteoarthritis; format: in vivo, horse; conditions: for COMP neo-epitope concentration in serum: after treatment and during rehabilitation
Description: Diagnosis of OA may be done with methods known in the art, for example clinical examination, radiography as is known in the art or the use of biomarkers, such as, for example, the COMP protein fragment described in WO2017216289, which is incorporated herein by reference. The presence of the COMP fragment in a bodily fluid, for example serum or synovial fluid, indicates OA, in particular cartilage degradation during OA. The COMP fragment may be detected by using an antibody that specifically binds to a peptide comprising the amino acid sequence N-terminal-SGPTH. It is referred to WO2017216289 for details.
Analysis of COMP epitope concentrations in synovial fluid and serum was carried out as in WO2017216289, and is shown in FIGS. 2B and C, respectively. The presence of the COMP epitope indicates ongoing inflammation and tissue damage in the joint.

## C=C1/C(=C\C=C2/CCC[C@]3(C)[C@@H]([C@H](C)CCCC(C)(C)O)CC[C@@H]23)C[C@@H](O)C[C@@H]1O [D3, 1α,25-dihydroxyvitamin D3]
[1]; D3 (calcitriol 100 nM) by itself, 24 h, FIG. 1E
  intracellular Ca2+ release: did not have an effect

## CCCCN1CCCCC1C(=O)Nc1c(C)cccc1C (centres unmarked) [bupivacaine]
[1]; bupivacaine 10^-12 M together with metformin 1 mM, 24 h
  intracellular Ca2+ release (AUC and peak): decreased; also recorded: reduced
[2]
  FGF18 expression: upregulated
  GDF5 expression: upregulated
[2]; low concentration of bupivacaine
  growth factors of importance for generation of cartilage: upregulated

## hyaluronic acid
[3]; horse number 1, both fetlock joints, hyaluronic acid intra-articularly and corticosteroids orally
  lameness: lameness was increased

## CCCc1nn(C)c2c(=O)[nH]c(-c3cc(S(=O)(=O)N4CCN(C)CC4)ccc3OCC)nc12 [sildenafil]
[1]; sildenafil (1 μM, low concentration) added to bupivacaine/metformin, 24 h
  intracellular Ca2+ release (AUC and peak): increased the effect
[1]; low doses
  intracellular calcium signalling, in particular ATP-evoked: capable of inhibiting
[2]; addition of sildenafil in low concentration to bupivacaine
  growth factors of importance for generation of cartilage: increased the effect
[2]
  FGF18 expression: upregulated
  GDF5 expression: upregulated
[3]; horse number 2, carpal joints, 10 ml intra-articular injections
  clinical lameness grade: clinical recovery
[3]; horse number 3, both carpal joints, intra-articular injection
  clinical lameness grade: clinical recovery
[4]; horse number 2, FIG. 3C
  COMP neo-epitope concentration in serum: decrease of COMP levels to normal physiological levels
[4]; horse number 2, FIG. 3B
  COMP neo-epitope concentration in synovial fluid: decrease of COMP levels to normal physiological levels
[4]; horse number 3, FIG. 4C
  COMP neo-epitope concentration in serum: decreased levels of COMP
[4]; horse number 3, FIG. 4B
  COMP neo-epitope concentration in synovial fluid: decreased levels of COMP
